The test addresses T1, G1 APOL1 (Homo sapiens, UniProt O14791, I384M/S342G).
T1 construct: expressed in transfected cells
T1 sequence (O14791 28-398 S342G/I384M): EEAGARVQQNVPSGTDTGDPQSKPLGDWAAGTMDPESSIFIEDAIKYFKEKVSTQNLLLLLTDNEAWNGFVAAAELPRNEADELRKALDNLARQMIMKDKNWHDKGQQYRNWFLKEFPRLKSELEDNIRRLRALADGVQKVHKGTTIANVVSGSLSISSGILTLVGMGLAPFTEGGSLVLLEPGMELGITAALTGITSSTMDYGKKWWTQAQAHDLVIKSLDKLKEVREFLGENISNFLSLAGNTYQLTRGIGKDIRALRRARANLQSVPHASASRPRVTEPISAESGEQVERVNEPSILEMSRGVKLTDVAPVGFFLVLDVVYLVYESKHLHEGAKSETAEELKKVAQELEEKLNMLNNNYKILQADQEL
Nature of the test: Acute APOL1 Thallium Assay with Inducible Stable Clones of HEK 293 Cells. In kind it is cell-based. Conditions: HEK 293 inducible stable clones, G1 APOL1; read-out: Thallium Assay (IC50). An excerpt: Acute APOL1 Thallium Assay with Inducible Stable Clones of HEK 293 Cells
Apolipoprotein L1 (APOL1) proteins form potassium-permeable cation pores in the plasma membrane. APOL1 risk variants (G1 and G2) induce greater potassium flux than G0 in HEK293 cells. This assay exploits the permeability of thallium (Tl+) through ligand-gated potassium channels. The dye produces a bright fluorescent signal upon binding to Tl+ conducted through potassium channels. The intensity of the Tl+ signal is proportional to the number of potassium channels in the open state. Therefore, it provides a functional indication of the potassium channel activities. During the initial dye-loading step, the Tl+ indicator dye as an acetoxymethyl (AM) ester enters the cells through passive diffusion. Cytoplasm esterases cleave the AM ester and relieve its active thallium-sensitive form. The cells are then stimulated with Tl+. The increase of fluorescence in the assay represents the influx of Tl+ into the cell specifically through the potassium channel (i.e. through APOL1 pores), providing a functional measurement of potassium channel/pore activity. The Thallium assay is conducted with cells expressing G1 APOL1.
APOL1 Cell Line (HEK T-Rex Stable Inducible Cell Line) • HEK T-Rex System • Tetracycline (Tet) inducible mammalian expression system. • Stably express the Tet repressor to regulate transcription. • Expression under the full-length CMV promoter. • APOL1 stable inducible cell line Clone used: G1 DC3.25
Tissue Culture Media • Cell Culture Medium • DMEM+10% FBS+P/S+5 μg/mL blasticidin+1 μg/mL puromycin. • 500 mL DMEM+55 mL FBS+5 mL P/S+280 μL blasticidin S HCl (10 mg/mL)+56 μL puromycin (10 mg/mL). • Cell Assay Medium • DMEM with 2% FBS+penicillin/streptomycin.
Instruments and Equipment • Nuaire cell culture hood, Cat. No. 540-600 • 37° C./5% CO2 incubator link to robotic arm, Liconic: STX110 • Molecular Devices FLIPR^Tetra High throughput cellular screening system, Cat. No. FT0324, Molecular Devices • ThermoFisher MultiDrop 384, Cat. No. 5840300 • Biotek Microfill, Cat. No. ASF1000A-4145 • BioRad TC10 cell counter, Cat. No. 145-0010
Cells Scaled Up from Frozen Vials • APOL1 G1 3.25 (HEK293 T-Rex) frozen vials: 5 million cells per vial • Step 1, Day 1: Defrost frozen vial into T-225. • Step 2, Day 5: (when 85% confluent): Split one T-225 at 3×10^6 cells per flask. • Step 3, Day 8: Splits cells to set up for the assay plates as described below.
T-Rex APOL1 HEK cells are split twice per week to keep the confluence state below 85% of the culture flask surface area. Cells can be kept until passage 25. • Cell Culture Medium • DMEM high glucose+10% FBS, +P/S, +5 μg/mL blasticidin, +1 μg/mL puromycin. • 500 mL DMEM, +55 mL FBS, +5 mL P/S, +280 μL blasticidin 10 mg/mL, +56 μL Puromycin 10 mg/mL. • Assay Media • Opti-MEM reduced serum medium from Invitrogen.
Preparation of Cell Assay Plates • Culture medium is removed from the x cm^2 T-flask by aspiration. • The cell monolayer is rinsed with PBS 1× at room temperature. PBS is removed by aspiration. • Cells are trypsinized using Trypsin. • The flasks are incubated at room temperature for 2-3 minutes. • Complete DMEM medium is then added. Cell suspension is then transferred to a 50 mL Falcon polypropylene tube. • Cells are then counted using a BioRad TC10 cell counter and the required amount of cells are centrifuged at 1200 RPM for 5 minutes. Required amount is 1.3×10^6 cells/mL APOL1 T-Rex HEK cells. • The pellet is suspended in the assay medium. • Using the MultiDrop, add 20 μL to each well (corresponds to 26000 cells total per well) of a 384-well black, transparent, flat bottom Poly-D coated plate. • Tetracycline as prepared in the following section is added to the cells before plating to induce APOL1 expression. • Plates are left at room temperature for 20 to 30 minutes before incubation at 37° C. and 5% CO2. […]

pIC50: −log10 of the molar value.

Regarding `CC(CO)(CO)NC(=O)OCCc1c(-c2ccc(F)cc2)[nH]c2c(F)cc(F)cc12` [Compound 434, 2-[5,7-difluoro-2-(4-fluorophenyl)-1H-indol-3-yl]ethyl N-[2-hydroxy-1-(hydroxymethyl)-1-methyl-ethyl]carbamate], the pIC50 was above 6.60. Next, `O=C(Cc1c(-c2ccc(F)cc2)[nH]c2ccccc12)NCC(O)CO` (centres unmarked) [Compound 516, N-(2,3-dihydroxypropyl)-2-(2-(4-fluorophenyl)-1H-indol-3-yl)acetamide]: below 6.00. Next, `Cc1cc(F)c2[nH]c(-c3ccc(F)cc3)c(CCC(=O)NC[C@H](O)CO)c2c1` [Compound 226]: below 6.00; `OC1(CC#Cc2c(-c3ccc(F)cc3)[nH]c3c(F)cc(F)cc23)COC1` [Compound 524, 3-[3-[5,7-difluoro-2-(4-fluorophenyl)-1H-indol-3-yl]prop-2-ynyl]oxetan-3-ol]: below 6.00; `COCC1(CNC(=O)NCCc2c(-c3ccc(F)cc3)[nH]c3c(F)cc(F)cc23)CC1` [Compound 292]: below 6.00. Under `CC(C)(O)CNC(=O)NCCc1c(-c2ccc(F)cc2)[nH]c2c(F)cc(F)cc12` [Compound 279] stands below 6.00; under `O=C(CCc1c(-c2ccc(F)cc2)[nH]c2c(F)cc(Cl)cc12)NCCCO` [Compound 209], below 6.00; under `Cc1cc(F)c2[nH]c(-c3ccc(F)cc3)c(CCC(=O)NC(CO)CO)c2c1` [Compound 219], below 6.00.

Turning to `O=C(NCCc1c(-c2ccc(F)cc2)[nH]c2c(F)cc(F)cc12)C1CC1` [Compound 415], the pIC50 is 6.00 to 6.60.

Consider `O=C(NC[C@@H](O)CO)OCCc1c(-c2ccc(F)cc2)[nH]c2c(F)cc(F)cc12` [Compound 476], for which the pIC50 was below 6.00. On to `O=C1NC(=O)C(CCS(=O)(=O)NCCc2c(-c3ccc(F)cc3)[nH]c3c(F)cc(F)cc23)N1` (centres unmarked) [Compound 420, N-(2-(5,7-difluoro-2-(4-fluorophenyl)-1H-indol-3-yl)ethyl)-2-(2,5-dioxoimidazolidin-4-yl)ethane-1-sulfonamide], for which the pIC50 is below 6.00. Next, `CC1(O)CC(NC(=O)OCCc2c(-c3ccc(F)cc3)[nH]c3c(F)cc(F)cc23)C1` (mixture of isomers) [Compound 495]: below 6.00. Under `O=C(NCCc1c(-c2ccc(F)cc2)[nH]c2c(F)cc(F)cc12)[C@@H]1CCOC1` [Compound 409] stands below 6.00. As for `O=C(NCCc1c(-c2ccc(F)cc2)[nH]c2c(F)cc(F)cc12)N[C@@H](CO)C(F)(F)F` [Compound 261], the pIC50 was 6.00 to 6.60. With `CC(C)(C)OC(=O)NC(CC(N)=O)C(=O)NCCc1c(-c2ccc(F)cc2)[nH]c2c(F)cc(F)cc12` (centres unmarked) [Compound 304, tert-butyl N-[3-amino-1-[2-[5,7-difluoro-2-(4-fluorophenyl)-1H-indol-3-yl]ethylcarbamoyl]-3-oxo-propyl]carbamate], the pIC50 is 6.00 to 6.60. Next, `CC(C)(O)C(=O)NCCc1c(-c2ccc(F)cc2)[nH]c2c(F)cc(F)cc12` [Compound 355]: below 6.00; `Cn1cc(C(=O)NCCc2c(-c3ccc(F)cc3)[nH]c3c(F)cc(F)cc23)cn1` [Compound 391]: below 6.00; `O=C(NCc1cn(CC(F)(F)F)cn1)OCCc1c(-c2ccc(F)cc2)[nH]c2c(F)cc(F)cc12` [Compound 493]: below 6.00. Next, `O=C(NCCc1c(-c2ccc(F)cc2)[nH]c2c(F)cc(F)cc12)c1ccc[nH]1` [Compound 354]: below 6.00; `CC(C)(CO)C(=O)NCCc1c(-c2ccc(F)cc2)[nH]c2c(F)cc(F)cc12` [Compound 341]: 6.00 to 6.60. Next, `O=C(NCCc1c(-c2ccc(F)cc2)[nH]c2c(F)cc(F)cc12)NCC1(O)CCC1` [Compound 275]: below 6.00; `Cc1cc(F)c2[nH]c(-c3ccc(F)cc3)c(CCC(=O)NCC(N)=O)c2c1` [Compound 223]: below 6.00; `O=C(NCC(F)F)OCCc1c(-c2ccc(F)cc2)[nH]c2c(F)cc(F)cc12` [Compound 449]: above 6.60. Turning to `CS(=O)(=O)CCNC(=O)NCCc1c(-c2ccc(F)cc2)[nH]c2c(F)cc(F)cc12` [Compound 287], the pIC50 is below 6.00.

For `O=C(NCCc1c(-c2ccc(F)cc2)[nH]c2c(F)cc(F)cc12)NCc1cccc(O)c1` [Compound 264], the pIC50 is below 6.00. Under `O=C(CCc1c(-c2ccc(F)cc2)[nH]c2c(F)cc(Cl)cc12)NC(CO)(CO)CO` [Compound 195] stands 6.00 to 6.60; under `Cc1cc(F)c2[nH]c(-c3ccc(F)cc3)c(CCC(=O)N[C@H](CO)C(N)=O)c2c1` [Compound 220], below 6.00; under `O=C(NC1(CO)CCC1)OCCc1c(-c2ccc(F)cc2)[nH]c2c(F)cc(F)cc12` [Compound 436], above 6.60. Next, `Cc1ccnn1CCC(=O)NCCc1c(-c2ccc(F)cc2)[nH]c2c(F)cc(F)cc12` [Compound 372]: below 6.00; `O=C(NCCc1c(-c2ccc(F)cc2)[nH]c2c(F)cc(F)cc12)C(O)CO` (centres unmarked) [Compound 310]: 6.00 to 6.60. On to `O=C(NCCc1c(-c2ccc(F)cc2)[nH]c2c(F)cc(F)cc12)[C@H]1CC[C@H](O)CC1` [Compound 325], for which the negative-log IC50 (pIC50) was below 6.00. Under `C[C@@H]1NC(=O)[C@H]1NC(=O)CCc1c(-c2ccc(F)cc2)[nH]c2c(F)cc(F)cc12` [Compound 96] stands 6.00 to 6.60.

`O=C(O)CNC(=O)NCCc1c(-c2ccc(F)cc2)[nH]c2c(F)cc(F)cc12` [Compound 285]: the pIC50 was below 6.00. Next, `C[C@H](O)CC(=O)NCCc1c(-c2ccc(F)cc2)[nH]c2c(F)cc(F)cc12` [Compound 356]: below 6.00. Next, `CNC(=O)CCCc1c(-c2ccc(F)cc2)[nH]c2c(F)cc(F)cc12` [Compound 239, 4-(5,7-difluoro-2-(4-fluorophenyl)-1H-indol-3-yl)-N-methylbutanamide]: 6.00 to 6.60; `O=C1CC(C(=O)NCCc2c(-c3ccc(F)cc3)[nH]c3c(F)cc(F)cc23)CN1` (centres unmarked) [Compound 340]: below 6.00; `C[C@@H](CO)NC(=O)N(C)CCc1c(-c2ccc(F)cc2)[nH]c2c(F)cc(F)cc12` [Compound 303]: below 6.00.

As for `Cc1cc(F)c2[nH]c(-c3ccc(F)cc3)c(CCC(=O)NCCO)c2c1` [Compound 218], the pIC50 is below 6.00. Under `O=C(NCCc1c(-c2ccc(F)cc2)[nH]c2c(F)cc(F)cc12)[C@H]1CCOC1` [Compound 407] stands below 6.00; under `CC(C)(C)OC(=O)N[C@@H](CO)C(=O)NCCc1c(-c2ccc(F)cc2)[nH]c2c(F)cc(F)cc12` [Compound 308], below 6.00. `NC(=O)CNC(=O)OCCc1c(-c2ccc(F)cc2)[nH]c2c(F)cc(F)cc12` [Compound 452]: the pIC50 is above 6.60.

What is called pIC50 is the IC50 on a negative log10 scale, so that one unit is a factor of ten.

(Values after US20230014907A1, “INHIBITORS OF APOL1 AND METHODS OF USING SAME” (Vertex Pharmaceuticals Incorporated, priority 2020, published 2023).)
